How the values were obtained:
[1] = Probability model of serum T Cavg and Cmax distributions (titration dosing modeling); parameters: species or system hypogonadal men; details: nominal model parameter, 200 mg T BID as TU, normal distribution
Description: The fractions of the modeled patient population having their serum T Cavg and Cmax values falling within and/or outside of pre-specified limits and categories, as predicted from the probability model, were monitored and tabulated. The categories of interest were those identified by the FDA in its proposed guidelines for safe and effective hormone replacement therapy, as summarized in Table 2.
The probability model was based on the pharmacokinetic results obtained from the hypogonadal patient population that participated in the two multi-dose TU treatments in study LOT-A. As noted previously, 29 hypogonadal males participated in the study, 28 of them completed Treatment Period 1 (300 mg T, as TU, BID) and 24 of them completed Treatment Period 3 (200 mg T, as TU, BID).
Initially, the distribution of the calculated values of Cavg in the treated population was characterized by a mean and standard deviation assuming that the distribution fit either a normal distribution, or a log-normal distribution. […]
Second, a relationship was identified between serum T Cavg and Cmax using linear regression, such that given an hypothesized Cavg value, an expected value of Cmax could be determined (FIG. 5). […]
Fourth, the fraction of a treated population that fell within one of the 7 bins identified in Table 1 was calculated by: • 1. […]

[2] = Example 1 single-day pharmacokinetic study of Formulation B; assay type: in vivo, hypogonadal men; details: 200 mg T equivalents BID with food
Method: The study was designed as an open-label, single-day dosing, sequential, cross-over, pharmacokinetic study.
The doses were administered as capsules to subjects five minutes after a meal (breakfast for QD, and breakfast and dinner for BID).

[3] = Example 3 four-week study of Formulation B (LOT-BB); assay type: in vivo, hypogonadal men
Method: The study was designed as an open-label, repeat dose, pharmacokinetic study.
For each subject, the “Day 28” serial PK sampling day was scheduled for Day 32 of the study. […] Doses were administered as capsules, with subjects instructed to take doses 30 minutes after initiation of meals (breakfast and dinner).

With `CCCCCCCCCCC(=O)O[C@H]1CC[C@H]2[C@@H]3CCC4=CC(=O)CC[C@]4(C)[C@H]3CC[C@]12C` [TU, testosterone undecanoate] the “Mean Cavg (CV)” value [1] was 520 (39%), the “Subjects achieving a serum T Cavg above 300 ng/dL” value [2] was 75% and the “Time to T steady-state” value ([3]; 200 mg T BID as TU) was 5 to 7 days. The “Subjects with Cmax greater than 1500 ng/dL” value ([3]; 200 mg T BID as TU, 28 days) was 13.3%, the “Subjects with serum T Cavg within the normal range” value ([3]; 200 mg T BID as TU, 28 days, no dose adjustment) was 86.7% and the “Endogenous serum T baseline concentration, mean” value ([3]; after 28 days of treatment) was 108 ng/dL. The “Time for DHT concentrations to return to pretreatment levels” value ([3]; after discontinuing treatment) was no more than 36 h, the “Time for E2 concentrations to return to pretreatment levels” value ([3]; after discontinuing treatment) was no more than 36 h and the “Continued treatment required for maximal suppression of endogenous T production” value ([3]; in vivo) was 5 to 7 days. The “E2 mean Cavg” value ([3]; steady state) was 0.022 ng/mL and the “E2 mean Cmin” value ([3]; steady state) was 0.0155 ng/mL.

Reference: patent US20210220374A1, “METHODS OF TREATING TE[…]” (Clarus Therapeutics, Inc., priority 2013, published 2021)
